PubChem BioAssay (NCI)
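A five-concentration, 48-hour dose response in 96-well plates underlies each endpoint, interpolated linearly between surrounding concentrations. GI50 marks 50% less growth. TGI marks complete inhibition of growth.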

Key:
Experiment in all cases: NCI tumour cell line growth inhibition, 48 h
[1] = test system: 786-0 renal
[2] = test system: A498 renal
[3] = test system: A549 NSCLC
[4] = test system: ACHN renal
[5] = test system: BT-549 breast
[6] = test system: CCRF-CEM leukemia
[7] = test system: COLO 205 colon
[8] = test system: DU-145 prostate
[9] = test system: EKVX NSCLC
[10] = test system: HCC-2998 colon
[11] = test system: HCT-116 colon
[12] = test system: HCT-15 colon
[13] = test system: HL-60(TB) leukemia
[14] = test system: HOP-62 NSCLC
[15] = test system: HOP-92 NSCLC
[16] = test system: HS 578T breast
[17] = test system: HT29 colon
[18] = test system: IGROV1 ovarian
[19] = test system: K-562 leukemia
[20] = test system: KM12 colon
[21] = test system: LOX IMVI melanoma
[22] = test system: M14 melanoma
[23] = test system: MALME-3M melanoma
[24] = test system: MCF7 breast
[25] = test system: MDA-MB-231 breast
[26] = test system: MDA-MB-435
[27] = test system: MOLT-4 leukemia
[28] = test system: NCI-H226 lung
[29] = test system: NCI-H23 lung
[30] = test system: NCI-H460 lung
[31] = test system: NCI-H522 lung
[32] = test system: NCI/ADR-RES ovarian
[33] = test system: OVCAR-3 ovarian
[34] = test system: OVCAR-4 ovarian
[35] = test system: OVCAR-5 ovarian
[36] = test system: OVCAR-8 ovarian
[37] = test system: PC-3 prostate
[38] = test system: RPMI-8226 leukemia
[39] = test system: RXF 393 renal
[40] = test system: SF-268 CNS
[41] = test system: SF-295 CNS
[42] = test system: SF-539 CNS
[43] = test system: SK-MEL-2 melanoma
[44] = test system: SK-MEL-28 melanoma
[45] = test system: SK-MEL-5 melanoma
[46] = test system: SK-OV-3 ovarian
[47] = test system: SN12C renal
[48] = test system: SNB-19 CNS
[49] = test system: SNB-75 CNS
[50] = test system: SR leukemia
[51] = test system: SW-620 colon
[52] = test system: T-47D breast
[53] = test system: U251 CNS
[54] = test system: UACC-257 melanoma
[55] = test system: UACC-62 melanoma
[56] = test system: UO-31 renal

Clc1ccc(Nc2nnc(CNc3ccccc3)c3ccccc23)cc1
GI50 [1]: 4.01 µM
TGI [1]: 12.5 µM
GI50 [2]: 1.45 µM
TGI [2]: 6.06 µM
GI50 [3]: 3.17 µM
TGI [3]: 20 µM
GI50 [4]: 3.1 µM
TGI [4]: > 25 µM
GI50 [5]: 2.93 µM
TGI [5]: 8.2 µM
GI50 [6]: 3.53 µM
TGI [6]: 17.6 µM
GI50 [7]: 0.915 µM
TGI [7]: 5.39 µM
GI50 [8]: 4.55 µM
TGI [8]: > 25 µM
GI50 [9]: 1.61 µM
TGI [9]: 15 µM
GI50 [10]: 4.85 µM
TGI [10]: 15.9 µM
GI50 [11]: 1.2 µM
TGI [11]: 5.02 µM
GI50 [12]: 2.99 µM
TGI [12]: 9.39 µM
GI50 [13]: 3.71 µM
TGI [13]: 13 µM
GI50 [14]: 2.86 µM
TGI [14]: 8.84 µM
GI50 [15]: 0.777 µM
TGI [15]: 6.3 µM
GI50 [16]: 2.95 µM
TGI [16]: 12.9 µM
GI50 [17]: 1.46 µM
TGI [17]: 6.36 µM
GI50 [18]: 1.93 µM
TGI [18]: 10.7 µM
GI50 [19]: 1.71 µM
TGI [19]: 14.5 µM
GI50 [20]: 3.05 µM
TGI [20]: 9.92 µM
GI50 [21]: 1.57 µM
TGI [21]: 4.97 µM
GI50 [22]: 1.74 µM
TGI [22]: 6.65 µM
GI50 [23]: 2.66 µM
TGI [23]: 9.92 µM
GI50 [24]: 2.68 µM
TGI [24]: 11.1 µM
GI50 [25]: 1.95 µM
TGI [25]: 8.73 µM
GI50 [26]: 1.47 µM
TGI [26]: 7.88 µM
GI50 [27]: 1.71 µM
TGI [27]: 8.74 µM
GI50 [28]: 2.52 µM
TGI [28]: 7.98 µM
GI50 [29]: 2.5 µM
TGI [29]: 16.4 µM
GI50 [30]: 3.21 µM
TGI [30]: 9.97 µM
GI50 [31]: 0.684 µM
TGI [31]: 4.62 µM
GI50 [32]: 4.12 µM
TGI [32]: 17 µM
GI50 [33]: 3.51 µM
TGI [33]: 8.69 µM
GI50 [34]: 3 µM
TGI [34]: > 25 µM
GI50 [35]: 4.92 µM
TGI [35]: > 25 µM
GI50 [36]: 4.63 µM
TGI [36]: 16.8 µM
GI50 [37]: 1.91 µM
TGI [37]: 14.4 µM
GI50 [38]: 2.1 µM
TGI [38]: 7.71 µM
GI50 [39]: 2.6 µM
TGI [39]: 8.12 µM
GI50 [40]: 3.28 µM
TGI [40]: 14.5 µM
GI50 [41]: 2.98 µM
TGI [41]: 8.77 µM
GI50 [42]: 3.67 µM
TGI [42]: 8.09 µM
GI50 [43]: 2.16 µM
TGI [43]: 5.83 µM
GI50 [44]: 3.67 µM
TGI [44]: 10.5 µM
GI50 [45]: 2.08 µM
TGI [45]: 5.27 µM
GI50 [46]: 3.17 µM
TGI [46]: 11.4 µM
GI50 [47]: 3.95 µM
TGI [47]: 18.9 µM
GI50 [48]: 4.71 µM
TGI [48]: 22.7 µM
GI50 [49]: 0.871 µM
TGI [49]: 7.05 µM
GI50 [50]: 1.75 µM
TGI [50]: 12.3 µM
GI50 [51]: 3.84 µM
TGI [51]: 11.1 µM
GI50 [52]: 1.17 µM
TGI [52]: 8.28 µM
GI50 [53]: 3.28 µM
TGI [53]: 7.33 µM
GI50 [54]: 2.74 µM
TGI [54]: 6.87 µM
GI50 [55]: 1.25 µM
TGI [55]: 5.7 µM
GI50 [56]: 1.36 µM
TGI [56]: 6.66 µM
